In patent publication US8722580B2, “Agent for inhibiting cytokinin signaling” (Sumitomo Chemical Company, Limited, priority 2006, dated 2014):

Legend:
Arabidopsis thaliana [1] = assay: Root growth-promoting activity test (Example 9); assay type: in vivo; conditions: test final concentration 0.625 ppm (concentration with highest root growth rate); main root length vs control section, 22° C., 10 days
Summary of the method: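 Compounds at 0.001–10 ppm final (added in DMSO) were mixed into Enshi medium, and Arabidopsis thaliana seeds were cultured in it for 10 days at 22° C under light. Root growth rate (%) is the treated mean main-root length divided by the control mean, from eight repeats.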

cytokinin receptor CRE1 [2] = biological target: T1, cytokinin receptor CRE1 (Arabidopsis thaliana, UniProt Q9C5U0, S567G/T1018A); assay type: binding; conditions: radiolabel 2IP 10 nM; test substance 10 μM
T1 construct: expressed in transfected cells; host or cells: Saccharomyces cerevisiae TM182 (sln1Δ) transformed with p415CYC-CRE1
Procedure: As the cytokinin labeled with a radioisotope of hydrogen, tritium so as to become highly radioactive, [3H]N-6-(isopent-2-enyl)Adenine manufactured by Amersham Biosciences (hereinafter, referred to as radiolabel 2IP) was used.
First, 100 μg of the membrane protein fraction of the transformed cell TM182-p415CYC1, a radiolabel 2IP dilution at a predetermined concentration with a phosphate buffer and 1 μl of a test substance dilution at a predetermined concentration with DMSO were mixed in a phosphate buffer to prepare 100 μl of a reaction liquid. Next, the reaction liquid was allowed to stand in ice for 1 hour and then filtered with a glass filter GF/B (manufactured by Whatman) to collect a membrane protein fraction of the transformed cell TM182-p425GPD-CRE1. The glass filter was immersed in a liquid scintillation cocktail Ultima Gold (manufactured by PerkinElmer Co., Ltd.), and radioactivity was measured by a liquid scintillation counter. […] In order to eliminate influence of radioactivity due to nonspecific binding of the radiolabel 2IP, a value of radioactivity obtained in the test using the membrane protein fraction of the transformed cell TM182-p425GPD was subtracted from a value of radioactivity obtained in the test using the membrane protein fraction of the transformed cell TM182-p425GPD-CRE1.

[3] = tested on: transformed cell TM182-p415CYC1; assay: Control growth test with transformed yeast cell TM182-p415CYC1 (toxicity to yeast); assay type: cell-based; conditions: trans-zeatin 0.6 ppm; chemical substance 2 ppm; 30° C., 24 hours; turbidity OD 600
Summary of the method: (§1)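 Relative growth % is derived from blank-corrected OD600 against DMSO wells after 24 h at 30° C, with inhibition given as 100 minus that value. Cells were set to OD600=0.1 with 0.6 ppm trans-zeatin and 2 ppm test substance: CRE1 strain in DOLU+Glu, p415CYC1 toxicity control in DOLU+Gal.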

cytokinin receptor CRE1 [4] = biological target: T1, cytokinin receptor CRE1; assay: Inhibition of intracellular signaling from plant-derived cytokinin receptor, growth of transformed yeast cell TM182-CRE1; assay type: cell-based; conditions: for Relative growth rate (%) in test section of test substance to control section, Transformed cell TM182-CRE1 / Activity (%) of test substance for inhibiting intracellular signaling from plant-derived cytokinin receptor of cell: trans-zeatin 0.6 ppm, chemical substance 2 ppm; for Relative growth rate (%) in test section of test substance to control section, Transformed cell TM182-CRE1: 30° C., 24 hours, turbidity OD 600; for Activity (%) of test substance for inhibiting intracellular signaling from plant-derived cytokinin receptor of cell: = 100 − relative growth rate of TM182-CRE1
Summary of the method: as §1

Arabidopsis thaliana [5] = assay: Root growth-promoting activity test (Example 22); assay type: in vivo; conditions: test final concentration 0.625 ppm (highest root growth rate); main root length vs control section, 22° C., 10 days
Summary of the method: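 Arabidopsis thaliana seeds (10-20 per tube) grown in sterile Enshi standard medium containing compound at 0.001 ppm to 10 ppm final (DMSO vehicle), 22 °C, 10 days in light. Main root length measured, eight repeats averaged; root growth rate (%) = treated/control mean main root length ×100.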

[6] = tested on: hypocotyl of Arabidopsis thaliana; assay: Plant differentiation-promoting activity, adventitious root formation from hypocotyl (Example 13); assay type: in vivo, Arabidopsis thaliana Columbia; conditions: agar medium with trans-zeatin 0.01 ppm
Procedure: With respect to the chemical substance Ic3-1 and the chemical substance Ic7-1 (which inhibit intracellular signaling from a plant-derived cytokinin receptor of a cell) selected in Example 7, a plant differentiation-promoting activity was evaluated by examining an adventitious root formation activity using an hypocotyl of Arabidopsis thaliana Columbia.
First, an agar medium for sowing Arabidopsis thaliana was prepared. The agar medium contains, as components per 1 liter of an aqueous solution, 1 parcel of mixed salts for Murashige-Scoog plant medium (Wako Pure Chemical Industries, Ltd.) for 1 liter, 10 g of sucrose, 10 ml of an aqueous 5% MES (2-(N-Morpholino)ethanesulfonic acid) solution adjusted to pH 5.7 with potassium hydroxide, 100 mg of inositol, 1 ml of vitamins stock solution (10 g of thiamine hydrochloride, 1 g of pyridoxine hydrochloride, and 1 g of nicotinic acid per 1 liter of an aqueous solution) and 8 g of agar. Then, the agar medium was subjected to autoclave at 120° C. for 20 minutes, dispensed to circular petri dishes, and then solidified.
Seeds of Arabidopsis thaliana (about 25 μl) were put in a 1.5 ml tube. Thereto was added 1 ml of a 10-fold diluted solution of a sodium hypochlorite solution (Nacalai Tesque) with sterilized distilled water. The seed were sterilized while stirring for about 1 minute with a tube mixer (TOMY, MT-360, MIXING SPEED10). […]

rice [7] = assay: Root growth-promoting activity by rice seed treatment (Example 12); assay type: in vivo, Oriza sativa L. japonica; conditions: rice seeds treated with 10,000 ppm acetone solution; 4 days dark at 30° C. then 35 days greenhouse
Procedure: With respect to the chemical substance Ic3-1 and the chemical substance Ic7-1 (which inhibit intracellular signaling from a plant-derived cytokinin receptor of a cell) selected in Example 7, a main root-growth promoting activity induced by seed treatment was evaluated using rice (Oriza sativa L. japonica). The chemical substance was dissolved in acetone to prepare a 10,000 ppm solution. The acetone chemical substance solution (300 μl) thus prepared was put in an eppendorf tube. Then, 15 seeds were put in the eppendorf tube. The resulting mixture was mixed for about 30 seconds. The seeds thus chemical-treated were spread and dried on a filter paper.
About 820 ml of culture soil was placed in a plastic container (120 mm in length, 97 mm in height) with a hole in the bottom. The chemical-treated seeds were sowed in the plastic container (15 seeds per plastic container). The seeds were cultivated in a dark place at 30° C. for 4 days and then cultivated in a greenhouse for 35 days. Roots of the plant thus cultivated were removed and the soil adhered to the plant was washed away, followed by freeze-drying. Then, the weight of roots after freeze-drying was measured. A test was repeated 3 times for each treatment section, and an average was determined.

rice [8] = assay: Root growth-promoting activity using rice, seed growth pouch (Example 11); assay type: in vivo, Oriza sativa L. japonica; conditions: 25° C., 7 days
Procedure: With respect to the chemical substance Ic3-1 and the chemical substance Ic7-1 (which inhibit intracellular signaling from a plant-derived cytokinin receptor of a cell) selected in Example 7, a main root-growth promoting activity was evaluated using rice (Oriza sativa L. japonica). Aqueous solutions of the chemical substance having different concentrations (10 ppm, 25 ppm, each containing 0.1% DMSO) were prepared. A naper towel was impregnated with 17 ml of the chemical solution, wherein the heavy paper was placed in a seed growth pouch for observation of root growth (177 mm×163 mm, manufactured by Daiki Rika Kogyo Co., Ltd.), and 3 rice seeds were sowed on the paper towel. The pouch was put in a plastic container, and then sealed. After culture in the light at 25° C. for 7 days, the length of a main root was measured. An average of 3 repeats was determined and a root growth rate was determined by the following equation. Root growth rate (%)=(Average main root length in chemical substance-treated section)/(Average main root length in control section)×100−100

T1 sequence (Q9C5U0 24-1080 S567G/T1018A): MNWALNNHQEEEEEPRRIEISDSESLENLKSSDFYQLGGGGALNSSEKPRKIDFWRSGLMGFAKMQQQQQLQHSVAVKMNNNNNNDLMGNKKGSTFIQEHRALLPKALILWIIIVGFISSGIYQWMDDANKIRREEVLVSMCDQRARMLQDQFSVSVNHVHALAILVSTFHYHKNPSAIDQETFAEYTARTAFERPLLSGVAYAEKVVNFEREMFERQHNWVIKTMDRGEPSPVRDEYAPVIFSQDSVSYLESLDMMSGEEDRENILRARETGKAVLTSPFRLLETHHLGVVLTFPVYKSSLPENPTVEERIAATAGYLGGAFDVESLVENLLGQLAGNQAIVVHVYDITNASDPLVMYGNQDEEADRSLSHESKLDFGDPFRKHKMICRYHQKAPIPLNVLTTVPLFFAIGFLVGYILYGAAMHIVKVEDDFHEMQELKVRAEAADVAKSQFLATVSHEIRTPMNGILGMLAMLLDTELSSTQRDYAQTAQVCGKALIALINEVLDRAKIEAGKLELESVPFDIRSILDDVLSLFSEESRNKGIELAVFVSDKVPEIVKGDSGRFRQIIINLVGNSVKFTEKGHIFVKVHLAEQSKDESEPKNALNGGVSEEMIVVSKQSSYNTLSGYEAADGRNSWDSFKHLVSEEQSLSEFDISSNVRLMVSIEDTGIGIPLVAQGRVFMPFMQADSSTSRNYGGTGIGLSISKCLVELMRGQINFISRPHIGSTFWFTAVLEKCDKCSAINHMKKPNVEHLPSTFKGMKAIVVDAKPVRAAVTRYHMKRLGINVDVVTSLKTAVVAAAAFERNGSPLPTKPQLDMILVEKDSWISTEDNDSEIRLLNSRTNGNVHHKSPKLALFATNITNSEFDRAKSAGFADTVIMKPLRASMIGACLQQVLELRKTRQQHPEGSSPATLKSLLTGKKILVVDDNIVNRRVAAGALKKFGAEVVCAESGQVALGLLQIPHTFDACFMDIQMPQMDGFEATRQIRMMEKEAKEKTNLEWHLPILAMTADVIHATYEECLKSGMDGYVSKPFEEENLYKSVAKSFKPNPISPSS

SMILES	Root growth-promoting activity (root growth rate) (Arabidopsis thaliana [1]) [%]	radioactivity of bound radiolabel 2IP compared with DMSO only or abscisic acid (cytokinin receptor CRE1 [2])	Relative growth rate (%) in test section of test substance to control section, Transformed cell TM182-p415CYC1 [3] [%]	Relative growth rate (%) in test section of test substance to control section, Transformed cell TM182-CRE1 (cytokinin receptor CRE1 [4]) [%]	Activity (%) of test substance for inhibiting intracellular signaling from plant-derived cytokinin receptor of cell (cytokinin receptor CRE1 [4]) [%]	Root growth-promoting activity (root growth rate) (Arabidopsis thaliana [5]) [%]	adventitious root formation from the hypocotyl portion ([6]; test sections with final concentration 6 ppm or 2 ppm)	dry weight of roots per plant, % of the control section (rice [7]) [%]	main root growth increase relative to the control section (rice [8]; 10 ppm) [%]	main root growth increase relative to the control section (rice [8]; 25 ppm) [%]	melting point [°C]	adventitious root formation from the hypocotyl portion ([6]; all test sections, final concentration 6 ppm, 2 ppm, 0.6 ppm or 0.2 ppm)	inhibition at 2 ppm (cytokinin receptor CRE1 [4]; read-out: Activity (%) of test substance for inhibiting intracellular signaling from plant-derived cytokinin receptor of cell) [%]
OCCCCNc1nc(-c2ccccc2)c2cc(Cl)ccc2n1 [Ic3-4]	129.5	the radioactivity was decreased	106.4	1.4	98.6	129.5							
O=[N+]([O-])c1ccc2nc(NCCCO)nc(-c3ccccc3)c2c1 [Ic7-1]			115.8	6.7	93.3		adventitious roots were formed	126	17	19			
OCCNc1nc(-c2ccccc2)c2cc(Cl)ccc2n1 [Ic3-1, 6-chloro-2-(2-hydroxyethylamino)-4-phenylquinazoline]			114.1	5.4				119	17	20	137.9	adventitious roots were formed	94.6
C/C(=C\CNc1ncnc2nc[nH]c12)CO [trans-zeatin, reference compound]		the radioactivity was decreased											
